Test results taken from patent US5578574A, “Antithrombotic agents” (Eli Lilly and Company, priority 1995, dated 1996).
Square brackets hold non-standard residues; d marks the D form. Peptide text beside a SMILES is read from it. ξ: configuration not given here. dPip = O=C(O)[C@H]1CCCCN1; dThz = O=C(O)[C@H]1CSCN1; ξAze = O=C(O)C1CCN1

Columns and labels:
human thrombin = human thrombin (Homo sapiens, UniProt P00734); assay: Human thrombin inhibition (amidase activity, chromogenic substrate; Kass); conditions: purified human thrombin, mean over a range of concentrations
Protocol: Standard curves are constructed by plotting free thrombin concentration against hydrolysis rate. […] The amount of free inhibitor in each assay is calculated by subtracting the number of moles of bound thrombin from the number of moles of added inhibitor (test compound).
Kass is calculated for a range of concentrations of test compounds and the mean value reported in units of liter per mole.

thrombin = conditions: Bajusz et al., J. Med. Chem., 33, 1729-1735 (1990); cited from earlier work
[1] = Index of Bioavailability (plasma thrombin time AUC, oral vs i.v.); format: in vivo; conditions: rats; dose-adjusted AUC of plasma TT time course, p.o. vs i.v. bolus
Excerpt: Assays are done in duplicate and averaged.
Each sample population represents alternating sequential time points.

[2] = early clinical studies, Simoons et al.; cited from earlier work
[3] = Template Bleeding Time assay (gingival); format: in vivo, dog; conditions: 0.25, 0.50 and 1.0 mg/kg.hr; over a 240 minute time
Protocol: Whole blood cell counts, hemoglobin, and hematocrit values are determined on a 40-μl sample of citrated (3.8 percent) blood (1 part citrate:9 parts blood) with a hematology analyzer (Cell-Dyn 900, Sequoia-Turner. Mount View, Calif., U.S.A.). Gingival template bleeding times are determined with a Simplate II bleeding time device (Organon Teknika Durham, N.C., U.S.A.). The device is used to make 2 horizontal incisions in the gingiva of either the upper or lower left jaw of the dog. Each incision is 3 mm wide×2 mm deep. The incisions are made, and a stopwatch is used to determine how long bleeding occurs. A cotton swab is used to soak up the blood as it oozes from the incision. Template bleeding time is the time from incision to stoppage of bleeding. Bleeding times are taken just before administration of test compound (0 min), 60 min into infusion, at conclusion of administration of the test compound (120 min), and at the end of the experiment.
All data are analyzed by one-way analysis of variance (ANOVA) followed by Student-Neuman-Kuels post hoc t test to determine the level of significance. Repeated-measures ANOVA are used to determine significant differences between time points during the experiments. Values are determined to be statistically different at least at the level of p<0.05. All values are mean ±SEM. […]

[4] = Pharmacokinetic model in dogs, single oral dose; format: in vivo, dogs (Beagles); conditions: single 2 mg/kg oral dose
Protocol: Male dogs (Beagles; 18 months-2 years; 12-13 kg, Marshall Farms, North Rose, N.Y. 14516) are fasted overnight and fed Purina certified Prescription Diet (Purina Mills, St. Louis, Miss.) 240 minutes after dosing. Water is available ad libitum. The room temperature is maintained between 66°-74° F.; 45-50 percent relative humidity; and lighted from 0600-1800 hours.
Test compound is formulated immediately prior to dosing by dissolving in sterile 0.9 percent saline to a 5 mg/ml preparation. Dogs are given a single 2 mg/kg dose of test compound by oral garage. Blood samples (4.5 ml) are taken from the cephalic vein at 0.25, 0.5, 0.75, 1,2,3,4 and 6 hours after dosing. Samples are collected in citrated Vacutainer tubes and kept on ice prior to reduction to plasma by centrifugation. Plasma samples are derivatized with dinitrophenylhydrazine and analyzed by HPLC (Zorbax SB-C8 column) eluting with methanol/500 mM sodium acetate adjusted to pH7 with phosphoric acid (60:40, v/v). Plasma concentration of test compound is recorded and used to calculate the pharmacokinetic parameters: elimination rate constant, Ke; total clearance, Clt; volume of distribution, VD; time of maximum plasma test compound concentration, Tmax; maximum concentration of test compound of Tmax, Cmax; plasma half-life, t0.5; and area under the curve, A.U.C.; fraction of test compound absorbed, F.

Compound	Kass × 10^6 (l/mole) (human thrombin)	Percent Relative Activity (Index of Bioavailability) [1]	also measured
Cl.Cl.Cl.N=C(N)NCCC[C@@H](C=O)NC(=O)[C@@H]1CCCN1C(=O)[C@H]1C[C@H](Oc2ccc3ccccc3c2)CN1.O [Example 6, trans-4-(2-Naphthyloxy)-D-Prolinyl-L-Prolinyl-L-Arginine Aldehyde Trihydrochloride Monohydrate]	21 × 10^6 l/mole		
N=C(N)NCCC[C@@H](C=O)NC(=O)[C@@H]1CCCN1C(=O)[C@H](N)Cc1ccccc1 [D-Phe-Pro-Arg-H]			direct inhibition of thrombin (thrombin): potent direct inhibition of thrombin
Cl.Cl.N=C(N)NCCC[C@@H](C=O)NC(=O)[C@@H]1CCCN1C(=O)C1NCCS1 (stereo partly drawn) [Example 10, D,L-Thiazolidinyl-2-carbonyl-L-prolinyl-L-arginine aldehyde dihydrochloride]	27 × 10^6 l/mole	5%	
CC(C)(C)OC(=O)N[C@H](Cc1ccccc1)C(=O)N1CCC[C@H]1C(=O)N[C@H](C=O)CCCNC(=N)N [Boc-D-Phe-Pro-Arg-H]			direct inhibition of thrombin (thrombin): potent direct inhibition of thrombin
CN[C@H](Cc1ccccc1)C(=O)N1CCC[C@H]1C(=O)N[C@H](C=O)CCCNC(=N)N.O=S(=O)(O)O [D-MePhe-Pro-Arg-H sulfate]			anticoagulant in man [2]: is an anticoagulant in man
Cl.Cl.N=C(N)NCCC[C@@H](C=O)NC(=O)[C@@H]1CCCN1C(=O)[C@H]1CSCN1 [Example 4, D-Thiazolidinyl-4-Carbonyl-L-Prolinyl-L-Arginine Aldehyde Dihydrochloride] (H-[dThz]-Pro-Arg-aldehyde)	5 × 10^6 l/mole	16%	
Cl.Cl.Cl.N=C(N)NCCC[C@@H](C=O)NC(=O)[C@@H]1CCCN1C(=O)[C@H]1C[C@H](Sc2ccccc2)CN1.O.O.O [Example 14, trans-4-phenylthio-D-prolinyl-L-prolinyl-L-arginine aldehyde trihydrochloride trihydrate]	37 × 10^6 l/mole		
CC(C)C1N[C@@H](C(=O)N2CCC[C@H]2C(=O)N[C@H](C=O)CCCNC(=N)N)C(C)(C)S1.Cl.Cl (stereo partly drawn) [Example 5, D-2-Isopropyl-5,5-Dimethylthiazolidinyl-4-Carbonyl-L-Prolinyl-L-Arginine Aldehyde Dihydrochloride]	4 × 10^6 l/mole		
Cl.Cl.N=C(N)NCCC[C@@H](C=O)NC(=O)[C@@H]1CCCN1C(=O)C1CNCCN1 (stereo partly drawn) [Example 9, D,L-Piperazin-2-oyl-L-Prolinyl-L-Arginine Aldehyde Dihydrochloride]	121 × 10^6 l/mole	19%	
CN[C@H](Cc1ccccc1)C(=O)N1CCC[C@H]1C(=O)N[C@H](C=O)CCCNC(=N)N [D-MePhe-Pro-Arg-H]			direct inhibition of thrombin (thrombin): potent direct inhibition of thrombin
Cl.Cl.N=C(N)NCCC[C@@H](C=O)NC(=O)[C@@H]1CCCN1C(=O)[C@H]1CCCCN1 [Example 1, D-Homoprolinyl-L-Prolinyl-L-Arginine Aldehyde Dihydrochloride] (H-[dPip]-Pro-Arg-aldehyde)	46 × 10^6 l/mole	38%	effect on template bleeding time [3]: no significant effect on template bleeding time; A.U.C. o-infinity [4]: 4651 ng·h/mL; Cmax [4]: 1676 ng/mL; Ke (elimination rate constant) [4]: 0.0104 min⁻¹; Tmax [4]: 1 to 2 h; VD/F (volume of distribution) [4]: 0.729 L/kg; t0.5 (plasma half-life) [4]: 1.12 h
Cl.Cl.N=C(N)NCCC[C@@H](C=O)NC(=O)C1CCN1C(=O)[C@H]1CCCCN1 (stereo partly drawn) [Example 3, D-Homoprolinyl-L-Azetidinyl-L-Arginine Aldehyde Dihydrochloride] (H-[dPip]-[ξAze]-Arg-aldehyde)	45 × 10^6 l/mole	32%	
D-Prolinyl-L-Prolinyl-L-Arginine Aldehyde Dihydrochloride [Example 2]	12 × 10^6 l/mole	36%	
Cl.Cl.Cl.N=C(N)NCCC[C@@H](C=O)NC(=O)[C@@H]1CCCN1C(=O)[C@H]1C[C@@H](Oc2ccccc2)CN1.O (relative stereo) [Example 12, D-Cis-(4-phenoxy) Prolinyl-L-Prolinyl-L-Arginine Aldehyde Trihydrochloride Monohydrate]	25 × 10^6 l/mole	16%	
Cl.Cl.N=C(N)NCCC[C@@H](C=O)NC(=O)[C@@H]1CCCN1C(=O)C1NCCCC2CCCCC21 (mixture of isomers) [Example 8, DL-cis-3-aza-bicyclo[5.4.0]undecanyl-2-carbonyl-L-prolinyl-L-arginine aldehyde dihydrochloride]	595 × 10^6 l/mole	43%	
